Assays:
[1] = tested on: HDMECs colonized by N. meningitidis; experiment: Basement membrane remodelling: Gelatin-FITC matrix degradation by infected HDMEC; type: cell-based, human; conditions: infected cells, 150 μg/ml Gentamicin alone, 24 h post-infection
Protocol: (A) Experimental procedure: HDMECs grown on a fluorescent matrix (Gelatin-Fitc) were colonized by N. meningitidis for 6 h. They were then treated with 150 μg/ml gentamicin for 1 h, then 15 min with Trifluoperazine (50 μM) (or solvent alone as control) and incubated for further 15 h in the presence of 150 μg/ml gentamicin. (B) Fluorescence microscopy was used to visualize cells stained with labelled phalloidin and the fluorescent matrix. The presence of dark zones corresponds to zones of matrix degradation. (C) Quantification of the percentage of matrix degradation, using Image J software.
Plastic coverslips (13 mm diameter) (Nalgen #174950) were washed in ethanol 70%, dried then coated with poly-L-lysine 1 mg/ml for 20 min at room temperature. After one wash in sterile PBS, 0.5% Glutaraldehyde was added for 15 min at room temperature. After three washes in PBS, Gelatin-FITC (0.2 mg/ml Invitrogen #G13187) was added for 10 minutes at room temperature in the dark. Coverslip were then washed with sterile PBS and treated with 5 mg/ml sodium borohydride for 3 min. After three washes in sterile PBS, 10^5 HDMECs (PromoCell #C-12210) were seeded per well in their PromoCell culture medium and incubated overnight at 37° C. 5% CO2. The day after, cells were infected with Neisseria meningitidis Nm2C4.3, as above described. […] Quantifications were performed using ImageJ software (NIH).

[2] = tested on: type IV pili of N. meningitidis 2C4.3 and isogenic PilT mutant; experiment: Aggregation and type IV pili of wild type and PilT mutant (phase-contrast and transmission electron microscopy); type: cell-based, Neisseria meningitidis
Protocol: N. meningitidis 2C4.3 wild type strain and the isogenic derivative mutant PilT ([…]PilT) were grown in liquid culture at 10^7 CFU/ml for 2 h to form bacterial aggregates and then treated with 50 μM Trifluoperazine. Time lapse phase-contrast video microscopy was performed to visualize the effect on bacterial aggregates over time. Images were taken at the indicated time points of the video.
N. meningitidis 2C4.3 wild type strain and the isogenic derivative mutant PilT ([…]PilT) were grown in liquid culture at 10^7 CFU/ml for 2 h to form bacterial aggregates and then treated with 50 μM Trifluoperazine for 15 minutes before analysis by transmission electron microscopy. Arrows point at bundles of type IV pili expressed at the bacterial surface.
N. meninigitidis 2C4.3 strain and the isogenic derivative mutant PilT, where the pilT gene was interrupted by an erythromycin-resistance cassette (Pujol et al., 1999), were grown in suspension in DMEM medium supplemented with 10% heat-inactivated fetal calf serum. PilT belongs to a highly conserved protein family homologous to AAA-type motor proteins and is proposed to cause the retraction of type IV pili by disassembling the pilin subunits at the base of the fiber (Morand et al., 2004). After 2 h of growth, Trifluoperazine (or control vehicle) was added at 50 μM for 20 min. The effect on bacterial aggregates were visualized over time using a phase-contrast microscope or the bacterial suspensions were fixed in 4% Paraformaldehyde for 10 min, centrifuged at 1000 rpm for 5 minutes and the bacterial pellets washed in PBS. After negative staining with 1% phosphotungstic acid, bacteria were analysed by transmission electron microscopy, using a JEOL 1011 microscope.

[3] = tested on: meningococcal colonization of the human dermal vasculature; experiment: In vivo infection of mice engrafted with human skin
[4] = tested on: Nm2C4.3 microcolonies on HCMEC/D3; type: cell-based, Neisseria meningitidis
Protocol: HCMEC/D3, a well-established human brain endothelial cell line (Weksler et at, 2013) was grown in EBM-2 basal medium (Lonza, Walkersville, Md., USA) supplemented with 5% Fetal Bovine Serum “Gold”, 10 mM HEPES (PAA Laboratories GmbH, Pasching, Austria), 1% Penicillin-Streptomycin, 1% chemically defined lipid concentrate (Invitrogen Ltd, Paisley, UK), 1.4 μM hydrocortisone, 5 μg·ml^−1 ascorbic acid and 1ng·ml^−1 bFGF (Sigma-Aldrich, St. Louis, Mo.). Cells were grown on Thermanox coverslips coated with rat collagen I for 4 days at 37° C. in a humidified incubator in 5% CO2. Cells were then infected with a suspension of Nm2C4.3 (˜10^7 CFU/ml) in EBM2/FBS during 30 minutes to allow bacterial adhesion. Cells were then washed three times with medium to remove non-adherent bacteria and infection was pursued for 1 h 30: adherent bacteria grew at the endothelial cell surface and formed micro-colonies. Trifluoperazine was then added to obtain final concentrations of 10, 20, 30 and 40 μM. After incubation for 30 minutes, cells were washed and fixed in 4% Paraformaldehyde for 10 min, washed three times with PBS, and permeabilized with 0.1% Triton X-100 in PBS for 10 min. […] Quantification was done with ImageJ software (NIH). […]

[5] = tested on: Nm2C4.3 adhesion to human dermal microvascular endothelial cells (HDMECs); experiment: Meningococcal adhesion to endothelial cells after pretreatment of bacteria; type: cell-based, Neisseria meningitidis; conditions: bacteria pre-treated with 30 μM for 30 minutes
Protocol: Nm2C4.3 grown in suspension were pretreated in the absence or in the presence of 30 μM Trifluoperazine for 30 minutes before adhesion to human dermal microvascular endothelial cells (HDMECs) for 30 minutes. Infection was allowed to proceed for further 30, 60 or 90 minutes before fixation and immunostaining using anti-Nm2C4.3 antibody and Alexa Fluor 633 Phalloidin. (A) Representative fluorescence microscopy showing bacterial colony (white dots) formed at the surface of the endothelial cells. (B) Quantification of the bacterial colonization was performed using Image J software.

[6] = tested on: meningococcal colonization of human brain vessels; set-up: species or system Neisseria meningitidis; conditions: 40 μM for 30 min
Excerpt: Fresh human brain sections were obtained from frontal lobe specimens of macroscopically and histologically normal brain (confirmed by a neuropathologist) of individuals referred to the Department of Forensic Medicine for unexplained out-of-hospital sudden death (consent forms ML1094, PFS 10-008, ClinicalTrials.gov NCT00320099 from The Institutional Review Boards of the Poincare Hospital, Versailles-Saint Quentin University and the French “Agence de la Biomédecine”). After freezing of the brain tissue with isopentane cooled in liquid nitrogen, the sections, 7 μm thick, containing leptomeninges, cortical ribbon and the underlying white matter were immobilised on Superfrost™ plus microscope slides and stored at −80° C. […] Adherent meningococci were detected by immunofluorescence analysis: brain sections were incubated with the following primary antibodies for 2 h in PBS/BSA 0.1%: monoclonal anti-human CD31/PECAM-1 mouse monoclonal antibody (clone HEC7, ABCAM, ab119339) and a rabbit polyclonal serum anti-Nm 2C4.3 strain (1:3000). […] Entire samples were scanned using a Lamina (Perkin Helmer) and were further analysed using confocal microscopy (spinning disk Leica, 63×). Quantification analysis of the images (n=50 per section) was performed using ImageJ software (NIH). […]

| SMILES | degradation of the basement membrane [1] | surface expression of type IV pili, PilT mutant (TEM) ([2]; 50 μM) | type IV pili on bacterial surface, wild type 2C4.3 (TEM) ([2]; 50 μM for 30 minutes) | effect on aggregation of PilT mutant strain ([2]; 50 μM, PilT mutant unable to retract type IV pili) | colonization of the human dermal vasculature ([3]; mice engrafted with human skin) | incidence of vascular alteration ([3]; mice engrafted with human skin) | signs of intravascular coagulation ([3]; mice engrafted with human skin) | hallmark of vascular inflammation ([3]; trifluoperazine alone or in combination with cefotaxime) | concentration range of dose-dependent microcolony dispersion ([4]; 30 min, HCMEC/D3) | dispersion of microcolonies on human brain endothelial cells ([4]; treatment for 30 min) | adhesion / colony formation at the endothelial cell surface by pre-treated bacteria [5] | reduction of vascular colonization of the human brain vessels [6] |
| --- | --- | --- | --- | --- | --- | --- | --- | --- | --- | --- | --- | --- |
| CN[C@@H]1[C@@H](O)C(O[C@@H]2[C@@H](O)[C@H](O[C@H]3O[C@H]([C@@H](C)NC)CC[C@H]3N)[C@@H](N)C[C@H]2N)OC[C@]1(C)O (stereo partly drawn) [Gentamicin, (3R,4R,5R)-2-{[(1S,2S,3R,4S,6R)-4,6-diamino-3-{[(2R,3R,6S)-3-amino-6-[(1R)-1-(methylamino)ethyl]oxan-2-yl]oxy}-2-hydroxycyclohexyl]oxy}-5-methyl-4-(methylamino)oxane-3,5-diol] | about 20% | – | – | – | – | – | – | – | – | – | – | – |
| CN1CCN(CCCN2c3ccccc3Sc3ccc(C(F)(F)F)cc32)CC1 [Trifluoperazine] | – | did not affect | no longer observed | no effect | prevents the massive colonization | reduces incidence of vascular alteration | reduces the signs of intravascular coagulation | drastically reduced | 10 to 40 µM | induced their dispersion | did no longer adhere | 80% |

From patent publication US20200054646A1, “USE OF PHENOTHIAZINE DERIVATIVE IN THE TREATMENT OF INFECTIOUS PURPURA OR PURPURA FULMINANS” (priority 2016, published 2020)
